The target of experiment [1] is GDP-bound NRAS wild-type protein (Homo sapiens, UniProt P01111). As to the kind of experiment: Binding to NRAS by surface plasmon resonance (SPR), Single Cycle Kinetics. As to conditions: KD ratio NRAS/KRAS, class symbols.
The target of experiment [2] is GDP-bound HRAS wild-type protein (Homo sapiens, UniProt P01112). Put plainly: Binding to HRAS by surface plasmon resonance (SPR), Single Cycle Kinetics. As to conditions: KD ratio HRAS/KRAS, class symbols. On the technique in general: Surface plasmon resonance follows binding to a sensor surface in real time, without labels.
Chain of GDP-bound HRAS wild-type protein (P01112 whole entry): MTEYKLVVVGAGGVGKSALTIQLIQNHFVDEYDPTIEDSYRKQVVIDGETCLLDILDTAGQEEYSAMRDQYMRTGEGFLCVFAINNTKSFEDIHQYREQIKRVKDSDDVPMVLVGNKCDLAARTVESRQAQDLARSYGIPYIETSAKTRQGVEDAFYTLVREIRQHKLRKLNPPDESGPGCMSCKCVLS

Chain of GDP-bound NRAS wild-type protein (P01111 whole entry): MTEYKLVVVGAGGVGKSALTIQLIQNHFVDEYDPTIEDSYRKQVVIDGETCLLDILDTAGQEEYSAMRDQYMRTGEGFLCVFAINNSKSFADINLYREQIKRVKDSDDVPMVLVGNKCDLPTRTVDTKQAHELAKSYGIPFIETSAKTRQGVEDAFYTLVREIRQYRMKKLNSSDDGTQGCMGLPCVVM

With `CCO[C@@H]1C[C@H]2C(=O)NC3(CC(C)(C)C3)C(=O)N(C)[C@@H](C3CCCCC3)C(=O)N(C)[C@H](C(=O)N(C)C)CC(=O)N(C)[C@@H](COC)C(=O)N[C@@H]([C@@H](C)CC)C(=O)N(C3CC3)CC(=O)N(C)[C@H]3C/C=C\CCN(C3=O)[C@@H](Cc3ccc(C(F)(F)F)cc3)C(=O)N(C)CC(=O)N[C@@H](CCc3cc(F)c(C(F)(F)F)c(F)c3)C(=O)N2C1` [PP2657], the “NRAS/KRAS (ratio of KD value with respect to GDP-bound NRAS wild-type protein to KD value with respect to KRAS)” value in experiment [1] was “A (a compound having 10 or more and less than 20 is denoted as A)”. The “HRAS/KRAS (ratio of KD value with respect to GDP-bound HRAS wild-type protein to KD value with respect to KRAS)” value in experiment [2] was “A (a compound having 10 or more and less than 20 is denoted as A)”.
For `CCO[C@@H]1C[C@H]2C(=O)NC3(CC(C)(C)C3)C(=O)N(C)[C@@H](C3CCCCC3)C(=O)N(C)[C@H](C(=O)N(C)C)CC(=O)N(C)[C@@H](COC)C(=O)N[C@@H]([C@@H](C)CC)C(=O)N(C)CC(=O)N(C)[C@H]3C/C=C\CCN(C3=O)[C@@H](Cc3ccc(C)cc3)C(=O)N(C)CC(=O)N[C@@H](CCc3cc(F)c(C(F)(F)F)c(F)c3)C(=O)N2C1` [PP2659], in experiment [1], the “NRAS/KRAS (ratio of KD value with respect to GDP-bound NRAS wild-type protein to KD value with respect to KRAS)” value was “A (a compound having 10 or more and less than 20 is denoted as A)”. Further, in experiment [2], the “HRAS/KRAS (ratio of KD value with respect to GDP-bound HRAS wild-type protein to KD value with respect to KRAS)” value is “A (a compound having 10 or more and less than 20 is denoted as A)”.
Turning to `CC[C@H](C)[C@@H]1NC(=O)[C@H](COC)N(C)C(=O)C[C@@H](C(=O)N(C)C)N(C)C(=O)[C@H](C2CCCCC2)N(C)C(=O)C2(CC(C)(C)C2)NC(=O)[C@@H]2C[C@@H](OC(C)C)CN2C(=O)[C@H](CCc2cc(F)c(C(F)(F)F)c(F)c2)NC(=O)CN(C)C(=O)[C@H](Cc2ccc(C)cc2)N2CC/C=C\C[C@@H](C2=O)N(C)C(=O)CN(C)C1=O` [PP2660], in experiment [1], the “NRAS/KRAS (ratio of KD value with respect to GDP-bound NRAS wild-type protein to KD value with respect to KRAS)” value is “A (a compound having 10 or more and less than 20 is denoted as A)”. In addition, in experiment [2], the “HRAS/KRAS (ratio of KD value with respect to GDP-bound HRAS wild-type protein to KD value with respect to KRAS)” value was “A (a compound having 10 or more and less than 20 is denoted as A)”.
As for `CCO[C@@H]1C[C@H]2C(=O)NC3(CC(C)(C)C3)C(=O)N(C)[C@@H](C3CCCCC3)C(=O)N(C)[C@H](C(=O)N(C)C)CC(=O)N(C)[C@@H](COC)C(=O)N[C@@H]([C@@H](C)CC)C(=O)N(C)CC(=O)N(C)[C@H]3C/C=C\CCN(C3=O)[C@@H](Cc3ccc(C(F)(F)F)cc3)C(=O)N(C)CC(=O)N[C@@H](CCc3ccc(Cl)c(Cl)c3)C(=O)N2C1` [PP2661], in experiment [1], the “NRAS/KRAS (ratio of KD value with respect to GDP-bound NRAS wild-type protein to KD value with respect to KRAS)” value is reported as “AA (a compound having 20 or more is denoted as AA)”. Besides, the “HRAS/KRAS (ratio of KD value with respect to GDP-bound HRAS wild-type protein to KD value with respect to KRAS)” value in experiment [2] was “A (a compound having 10 or more and less than 20 is denoted as A)”.
`CC[C@H](C)[C@@H]1NC(=O)[C@H](COC)N(C)C(=O)C[C@@H](C(=O)N(C)C)N(C)C(=O)[C@H](C2CCCCC2)N(C)C(=O)C2(CC(C)(C)C2)NC(=O)[C@@H]2C[C@@H](OC(C)C)CN2C(=O)[C@H](CCc2ccc(Cl)c(Cl)c2)NC(=O)CN(C)C(=O)[C@H](Cc2ccc(C(F)(F)F)cc2)N2CC/C=C\C[C@@H](C2=O)N(C)C(=O)CN(C)C1=O` [PP2662]: the “NRAS/KRAS (ratio of KD value with respect to GDP-bound NRAS wild-type protein to KD value with respect to KRAS)” value in experiment [1] was “AA (a compound having 20 or more is denoted as AA)”. Further, in experiment [2], the “HRAS/KRAS (ratio of KD value with respect to GDP-bound HRAS wild-type protein to KD value with respect to KRAS)” value is “A (a compound having 10 or more and less than 20 is denoted as A)”.
On to `CC[C@H](C)[C@@H]1NC(=O)[C@H](COC)N(C)C(=O)C[C@@H](C(=O)N2CCCCC2)N(C)C(=O)[C@H](C2CCCC2)N(C)C(=O)C2(CC(C)(C)C2)NC(=O)[C@@H]2C[C@@H](OC3CCC3)CN2C(=O)[C@H](CCc2cc(F)c(C(F)(F)F)c(F)c2)NC(=O)CN(C)C(=O)[C@H](Cc2ccc(C(F)(F)F)cc2)N2CC/C=C\C[C@@H](C2=O)N(C)C(=O)CN(C)C1=O` [PP2664], for which, in experiment [1], the “NRAS/KRAS (ratio of KD value with respect to GDP-bound NRAS wild-type protein to KD value with respect to KRAS)” value is “A (a compound having 10 or more and less than 20 is denoted as A)”. Moreover, in experiment [2], the “HRAS/KRAS (ratio of KD value with respect to GDP-bound HRAS wild-type protein to KD value with respect to KRAS)” value is “B (a compound having 3 or more and less than 10 is denoted as B)”.
In the case of `CC[C@H](C)[C@@H]1NC(=O)[C@H](COC)N(C)C(=O)C[C@@H](C(=O)N2CCCCC2)N(C)C(=O)[C@H](C2CCCC2)N(C)C(=O)C2(CC(C)(C)C2)NC(=O)[C@@H]2C[C@@H](OC3CCCC3)CN2C(=O)[C@H](CCc2cc(F)c(C(F)(F)F)c(F)c2)NC(=O)CN(C)C(=O)[C@H](Cc2ccc(C(F)(F)F)cc2)N2CC/C=C\C[C@@H](C2=O)N(C)C(=O)CN(C)C1=O` [PP2665], the “NRAS/KRAS (ratio of KD value with respect to GDP-bound NRAS wild-type protein to KD value with respect to KRAS)” value in experiment [1] was “A (a compound having 10 or more and less than 20 is denoted as A)”. Besides, the “HRAS/KRAS (ratio of KD value with respect to GDP-bound HRAS wild-type protein to KD value with respect to KRAS)” value in experiment [2] is “A (a compound having 10 or more and less than 20 is denoted as A)”.
For `CCO[C@@H]1C[C@H]2C(=O)NC3(CC(C)(C)C3)C(=O)N(C)[C@@H](C3CCCC3)C(=O)N(C)[C@H](C(=O)N3CCCCC3)CC(=O)N(C)[C@@H](COC)C(=O)N[C@@H]([C@@H](C)CC)C(=O)N(C3CC3)CC(=O)N(C)[C@H]3C/C=C\CCN(C3=O)[C@@H](Cc3ccc(C(F)(F)F)cc3)C(=O)N(C)CC(=O)N[C@@H](CCc3cc(F)c(C(F)(F)F)c(F)c3)C(=O)N2C1` [PP2666], the “NRAS/KRAS (ratio of KD value with respect to GDP-bound NRAS wild-type protein to KD value with respect to KRAS)” value in experiment [1] was “AA (a compound having 20 or more is denoted as AA)”. Further, the “HRAS/KRAS (ratio of KD value with respect to GDP-bound HRAS wild-type protein to KD value with respect to KRAS)” value in experiment [2] is listed as “AA (a compound having 20 or more is denoted as AA)”.
Take `CC[C@H](C)[C@@H]1NC(=O)[C@H](COC)N(C)C(=O)C[C@@H](C(=O)N2CCCCC2)N(C)C(=O)[C@H](C2CCCC2)N(C)C(=O)C2(CC(C)(C)C2)NC(=O)[C@@H]2C[C@@H](OC(C)C)CN2C(=O)[C@H](CCc2cc(F)c(C(F)(F)F)c(F)c2)NC(=O)CN(C)C(=O)[C@H](Cc2ccc(C(F)(F)F)cc2)N2CC/C=C\C[C@@H](C2=O)N(C)C(=O)CN(C2CC2)C1=O` [PP2667]: in experiment [1], the “NRAS/KRAS (ratio of KD value with respect to GDP-bound NRAS wild-type protein to KD value with respect to KRAS)” value is “A (a compound having 10 or more and less than 20 is denoted as A)”. For the same compound, the “HRAS/KRAS (ratio of KD value with respect to GDP-bound HRAS wild-type protein to KD value with respect to KRAS)” value in experiment [2] was “A (a compound having 10 or more and less than 20 is denoted as A)”.
For the compound `CCO[C@@H]1C[C@H]2C(=O)NC3(CC(C)(C)C3)C(=O)N(C)[C@@H](C3CCCC3)C(=O)N(C)[C@H](C(=O)N3CCCCC3)CC(=O)N(C)[C@@H](COC)C(=O)N[C@@H]([C@@H](C)CC)C(=O)N(C)CC(=O)N(C)[C@H]3C/C=C\CCN(C3=O)[C@@H](Cc3ccc(C)cc3)C(=O)N(C)CC(=O)N[C@@H](CCc3cc(F)c(C(F)(F)F)c(F)c3)C(=O)N2C1` [PP2668], in experiment [1], the “NRAS/KRAS (ratio of KD value with respect to GDP-bound NRAS wild-type protein to KD value with respect to KRAS)” value is “A (a compound having 10 or more and less than 20 is denoted as A)”. Also, the “HRAS/KRAS (ratio of KD value with respect to GDP-bound HRAS wild-type protein to KD value with respect to KRAS)” value in experiment [2] was “A (a compound having 10 or more and less than 20 is denoted as A)”.
Regarding `CC[C@H](C)[C@@H]1NC(=O)[C@H](COC)N(C)C(=O)C[C@@H](C(=O)N2CCCCC2)N(C)C(=O)[C@H](C2CCCC2)N(C)C(=O)C2(CC(C)(C)C2)NC(=O)[C@@H]2C[C@@H](OC(C)C)CN2C(=O)[C@H](CCc2cc(F)c(C(F)(F)F)c(F)c2)NC(=O)CN(C)C(=O)[C@H](Cc2ccc(C)cc2)N2CC/C=C\C[C@@H](C2=O)N(C)C(=O)CN(C)C1=O` [PP2669], the “NRAS/KRAS (ratio of KD value with respect to GDP-bound NRAS wild-type protein to KD value with respect to KRAS)” value in experiment [1] is “A (a compound having 10 or more and less than 20 is denoted as A)”. Besides, the “HRAS/KRAS (ratio of KD value with respect to GDP-bound HRAS wild-type protein to KD value with respect to KRAS)” value in experiment [2] was “A (a compound having 10 or more and less than 20 is denoted as A)”.

These data come from patent US20250230193A1, “CYCLIC COMPOUND HAVING SELECTIVE KRAS INHIBITORY EFFECT ON HRAS AND NRAS” (CHUGAI SEIYAKU KABUSHIKI KAISHA, priority 2022, published 2025).
